# Results: patent publication US20200085839A1, “COMBINATION OF IMMUNOTHERAPEUTICS AND BISFLUOROALKYL-1,4-BENZODIAZEPINONE COMPOUNDS FOR TREATING LYMPHOMAS” (Ayala Pharmaceuticals Inc., priority 2018, published 2020)
# Experiments:
# Assay in all cases: Soluble (shed) BCMA by ELISA
# Type in all cases: cell-based, human
# [1] = test system: BC-1 cells (B-cell Lymphoma)
# Method: (§1) […] cell lines, comprising 9 subtypes of lymphomas (see Table 1), were seeded at 1×10^5 cells/well in a total volume of 250 μl into a 96-well plate. The cells were cultured in RPMI medium supplemented with 10% FCS. Compound (22) was added to the cell cultures at a concentration of 10 μM, 1 μM, 100 nM, 10 nM, 1 nM, 100 pM, 10 pM, 1 pM, and 100 fM, and cell lines (8 from Hadassah Medical Center, 31 from Eurofins) were incubated at 37° C. for 24 hours with Compound (22). Following incubation, the cells were collected and BCMA levels were evaluated on the cell surface for cell-bound BCMA. Cells were stained with an anti-BCMA antibody (PE anti-human 19F2 BCMA, Biolegend), and cell surface BCMA levels were determined by FACS analysis (Mean Fluorescence Intensity. Soluble BCMA levels were analyzed by ELISA (Human BCMA/TNFRSF17 DuoSet kit: R&D Systems).
# [2] = test system: EB-2 cells (Burkitt's Lymphoma)
# Method: as §1
# [3] = test system: Jeko-1 cells (Mantle Cell Lymphoma)
# Method: as §1
# [4] = test system: GA-10 cells (Burkitt's Lymphoma)
# Method: as §1
# DOHH-2 cells (DLBCL) = test system: DOHH-2 cells (DLBCL)
# Method: as §1
# DB cells (DLBCL) = test system: DB cells (DLBCL)
# Method: as §1
# [5] = test system: REC-1 cells (Mantle Cell Lymphoma)
# Method: as §1
# [6] = test system: L-248 cells (Hodgkin's Lymphoma)
# Method: as §1
# [7] = test system: Jiyoye cells (Burkitt's Lymphoma)
# Method: as §1
# [8] = test system: CRO-AP2 cells (B-cell Lymphoma)
# Method: as §1
# [9] = test system: CA46 cells (Burkitt's Lymphoma)
# Method: as §1
# [10] = test system: MHHH-PREB-1 cells (B-cell Lymphoma)
# Method: as §1
# [11] = test system: SR cells (Anaplastic Large Cell Lymphoma)
# Method: as §1
# [12] = test system: RPMI-6666 cells (Hodgkin's Lymphoma)
# Method: as §1
# SUDHL-10 cells (DLBCL) = test system: SUDHL-10 cells (DLBCL)
# Method: as §1
# [13] = test system: U937 cells (Histiocytic Lymphoma)
# Method: as §1
# [14] = test system: Namalwa cells (Burkitt's Lymphoma)
# Method: as §1
# ST486 cells (DLBCL) = test system: ST486 cells (DLBCL)
# Method: as §1
# SUDHL-8 cells (DLBCL) = test system: SUDHL-8 cells (DLBCL)
# Method: as §1
# [15] = test system: BCP-1 cells (B-cell Lymphoma)
# Method: as §1
# [16] = test system: Ramos cells (Burkitt's Lymphoma)
# Method: as §1
# [17] = test system: EB-3 cells (Burkitt's Lymphoma)
# Method: as §1
# [18] = Homo sapiens, read-out: Shed BCMA (pg/ml) EC50
smiles,measurement,setting,value
"Cc1cccc2c1NC(=O)[C@@H](NC(=O)[C@H](CCC(F)(F)F)[C@H](CCC(F)(F)F)C(N)=O)N=C2c1cccc(F)c1 [Compound (22), (2R,3S)—N-((3S)-5-(3-fluorophenyl)-9-methyl-2-oxo-2,3-dihydro-1H-1,4-benzodiazepin-3-yl)-2,3-bis(3,3,3-trifluoropropyl)succinamide]",Shed BCMA (pg/ml) % Reduction,[1],30%
same,soluble BCMA 1 nM Compound (22),"[1]; 1 nM, 24 h",>2000
same,soluble BCMA 10 nM Compound (22),"[1]; 10 nM, 24 h",1841.6
same,soluble BCMA 100 nM Compound (22),"[1]; 100 nM, 24 h",878.6
same,EC50,"[1]; Homo sapiens, BC1, read-out: Shed BCMA (pg/ml) EC50",84 nM
same,soluble BCMA 1 nM Compound (22),"[2]; EB2, 1 nM, 24 h",>2000
same,soluble BCMA 10 nM Compound (22),"[2]; EB2, 10 nM, 24 h",597.7
same,soluble BCMA 100 nM Compound (22),"[2]; EB2, 100 nM, 24 h",479.4
same,Shed BCMA (pg/ml) % Reduction,[2]; EB-2,70%
same,EC50,"[2]; Homo sapiens, EB2, EB-2, read-out: Shed BCMA (pg/ml) EC50",7.1 nM
same,EC50,"[3]; Homo sapiens, JeKo-1, read-out: Shed BCMA (pg/ml) EC50",1.1 nM
same,soluble BCMA 10 nM Compound (22),"[3]; JEKO-1, 10 nM, 24 h",338
same,Shed BCMA (pg/ml) % Reduction,[3]; Jeko-1,76%
same,soluble BCMA 1 nM Compound (22),"[3]; Jeko-1, 1 nM, 24 h",1245.6
same,soluble BCMA 100 nM Compound (22),"[3]; Jeko-1, 100 nM, 24 h",305.6
same,Shed BCMA (pg/ml) % Reduction,[4],83%
same,soluble BCMA 1 nM Compound (22),"[4]; 1 nM, 24 h",>2000
same,soluble BCMA 10 nM Compound (22),"[4]; 10 nM, 24 h",800.8
same,soluble BCMA 100 nM Compound (22),"[4]; 100 nM, 24 h",398.1
same,EC50,[4]; [18],7.4 nM
same,Shed BCMA (pg/ml) % Reduction,DOHH-2 cells (DLBCL),93%
same,soluble BCMA 1 nM Compound (22),"DOHH-2 cells (DLBCL); 1 nM, 24 h",1272.1
same,soluble BCMA 10 nM Compound (22),"DOHH-2 cells (DLBCL); 10 nM, 24 h",136
same,soluble BCMA 100 nM Compound (22),"DOHH-2 cells (DLBCL); 100 nM, 24 h",98.4
same,EC50,DOHH-2 cells (DLBCL); [18],2.2 nM
same,Shed BCMA (pg/ml) % Reduction,DB cells (DLBCL),100%
same,soluble BCMA 1 nM Compound (22),"DB cells (DLBCL); 1 nM, 24 h",270.5
same,soluble BCMA 10 nM Compound (22),"DB cells (DLBCL); 10 nM, 24 h",40.5
same,soluble BCMA,DB cells (DLBCL); FIG. 9B,decreased soluble BCMA
same,EC50,DB cells (DLBCL); [18],1 nM
same,Shed BCMA (pg/ml) % Reduction,[5],BLQ
same,EC50,"[5]; Homo sapiens, Rec1, read-out: Shed BCMA (pg/ml) EC50",> 10000 nM
same,Shed BCMA (pg/ml) % Reduction,[6],BLQ
same,EC50,[6]; [18],> 10000 nM
same,EC50,"[7]; Homo sapiens, JIYOYE, read-out: Shed BCMA (pg/ml) EC50",2.3 nM
same,soluble BCMA 10 nM Compound (22),"[7]; JIYOYE, 10 nM, 24 h",472.3
same,Shed BCMA (pg/ml) % Reduction,[7]; Jiyoye,81%
same,soluble BCMA 1 nM Compound (22),"[7]; Jiyoye, 1 nM, 24 h",1707.7
same,soluble BCMA 100 nM Compound (22),"[7]; Jiyoye, 100 nM, 24 h",373.1
same,soluble BCMA,"[7]; Jiyoye, FIG. 8B",decreased soluble BCMA
same,Shed BCMA (pg/ml) % Reduction,[8],91%
same,soluble BCMA 1 nM Compound (22),"[8]; 1 nM, 24 h",1895.3
same,soluble BCMA 10 nM Compound (22),"[8]; 10 nM, 24 h",409.5
same,soluble BCMA 100 nM Compound (22),"[8]; 100 nM, 24 h",126.1
same,EC50,[8]; [18],4.8 nM
same,Shed BCMA (pg/ml) % Reduction,[9]; CA46,90%
same,soluble BCMA 1 nM Compound (22),"[9]; CA-46, 1 nM, 24 h",1775.4
same,soluble BCMA 10 nM Compound (22),"[9]; CA-46, 10 nM, 24 h",330
same,soluble BCMA 100 nM Compound (22),"[9]; CA-46, 100 nM, 24 h",173.2
same,EC50,"[9]; Homo sapiens, CA46, read-out: Shed BCMA (pg/ml) EC50",7.4 nM
same,Shed BCMA (pg/ml) % Reduction,[10],97%
same,soluble BCMA 1 nM Compound (22),"[10]; 1 nM, 24 h",227.3
same,soluble BCMA 10 nM Compound (22),"[10]; 10 nM, 24 h",75.4
same,soluble BCMA 100 nM Compound (22),"[10]; 100 nM, 24 h",60.1
same,EC50,"[10]; Homo sapiens, B-cell, read-out: Shed BCMA (pg/ml) EC50",0.6 nM
same,Shed BCMA (pg/ml) % Reduction,[11],BLQ
same,EC50,[11]; [18],> 10000 nM
same,Shed BCMA (pg/ml) % Reduction,[12],92%
same,EC50,[12]; [18],9.1 nM
same,Shed BCMA (pg/ml) % Reduction,SUDHL-10 cells (DLBCL),97%
same,EC50,"SUDHL-10 cells (DLBCL); Homo sapiens, SU-DHL10, read-out: Shed BCMA (pg/ml) EC50",0.9 nM
same,Shed BCMA (pg/ml) % Reduction,[13],BLQ
same,EC50,"[13]; Homo sapiens, U-937, read-out: Shed BCMA (pg/ml) EC50",> 10000 nM
same,EC50,"[14]; Homo sapiens, Namalwa, read-out: Shed BCMA (pg/ml) EC50",0.6 nM
same,soluble BCMA 10 nM Compound (22),"[14]; NAMALWA, 10 nM, 24 h",66.6
same,Shed BCMA (pg/ml) % Reduction,[14]; Namalwa,95%
same,soluble BCMA 1 nM Compound (22),"[14]; Namalwa, 1 nM, 24 h",87.5
same,soluble BCMA 100 nM Compound (22),"[14]; Namalwa, 100 nM, 24 h",67.4
same,Shed BCMA (pg/ml) % Reduction,ST486 cells (DLBCL),90%
same,EC50,ST486 cells (DLBCL); [18],0.9 nM
same,Shed BCMA (pg/ml) % Reduction,SUDHL-8 cells (DLBCL),100%
same,EC50,"SUDHL-8 cells (DLBCL); Homo sapiens, SU-DHL-8, read-out: Shed BCMA (pg/ml) EC50",0.5 nM
same,Shed BCMA (pg/ml) % Reduction,[15],94%
same,soluble BCMA 1 nM Compound (22),"[15]; 1 nM, 24 h",1665.7
same,soluble BCMA 10 nM Compound (22),"[15]; 10 nM, 24 h",1610 pg/mL
same,soluble BCMA 100 nM Compound (22),"[15]; 100 nM, 24 h",460.6
same,soluble BCMA,[15]; FIG. 6B,decreased soluble BCMA
same,EC50,[15]; [18],48 nM
same,Shed BCMA (pg/ml) % Reduction,[16],76%
same,soluble BCMA 1 nM Compound (22),"[16]; 1 nM, 24 h",>2000
same,soluble BCMA 10 nM Compound (22),"[16]; 10 nM, 24 h",613.3
same,soluble BCMA 100 nM Compound (22),"[16]; 100 nM, 24 h",504.3
same,EC50,[16]; [18],8.6 nM
same,Shed BCMA (pg/ml) % Reduction,[17],BLQ
same,EC50,[17]; [18],> 10000 nM
